Test results published in ChEMBL document CHEMBL1212697, “High-content single-cell drug screening with phosphospecific flow cytometry” (Nat Chem Biol, 2008).
Blank lines part the entries; values can stand above or below the compound they belong to. Calls of active or inactive are those of the source. The rule behind the calls is not given here.

What was measured:
[1] = Inhibition of JAK-mediated IL4-induced Stat5 phosphorylation in BALB/c mouse CD4+ T cells by Phospho-Flow cytometry; format: cell-based; conditions: T-cell
[2] = Inhibition of JAK-mediated IL4-induced Stat5 phosphorylation in BALB/c mouse B cells by Phospho-Flow cytometry; format: cell-based
[3] = Inhibition of JAK-mediated IL6-induced Stat1 phosphorylation in BALB/c mouse CD4+ T cells by Phospho-Flow cytometry; format: cell-based; conditions: T-cell
Mus musculus [4] = organism: Mus musculus; assay: Inhibition of JAK-mediated IL4-induced Stat6 phosphorylation in BALB/c mouse CD11b-hi neutrophils by Phospho-Flow cytometry
[5] = Inhibition of JAK-mediated IL7-induced Stat5 phosphorylation in BALB/c mouse CD4+ T cells by Phospho-Flow cytometry; format: cell-based; conditions: T-cell
[6] = Inhibition of JAK-mediated IL6-induced Stat3 phosphorylation in BALB/c mouse CD8+ T cells by Phospho-Flow cytometry; format: cell-based; conditions: T-cell
[7] = Inhibition of JAK-mediated IL6-induced Stat3 phosphorylation in BALB/c mouse CD11b-hi neutrophils by Phospho-Flow cytometry
[8] = Inhibition of JAK-mediated IL10-induced Stat3 phosphorylation in BALB/c mouse CD4+ T cells by Phospho-Flow cytometry; format: cell-based; conditions: T-cell
[9] = Inhibition of JAK-mediated interferon-gamma-induced Stat1 phosphorylation in BALB/c mouse CD11b-hi neutrophils by Phospho-Flow cytometry
B [10] = assay: Inhibition of JAK-mediated IL10-induced Stat3 phosphorylation in BALB/c mouse B cells at 1 uM by Western blotting analysis; format: cell-based
[11] = Inhibition of JAK-mediated IL7-induced Stat5 phosphorylation in BALB/c mouse B cells by Phospho-Flow cytometry; format: cell-based
[12] = Inhibition of JAK-mediated IL6-induced Stat1 phosphorylation in BALB/c mouse CD8+ T cells by Phospho-Flow cytometry; format: cell-based; conditions: T-cell
B [13] = assay: Inhibition of JAK-mediated IL4-induced Stat6 phosphorylation in BALB/c mouse B cells at 10 uM by Western blotting analysis; format: cell-based
Mus musculus [14] = organism: Mus musculus; assay: Inhibition of JAK-mediated IL4-induced Stat6 phosphorylation in BALB/c mouse CD8+ Tcells by Phospho-Flow cytometry
[15] = target: T1, Janus Kinase (JAK) (Homo sapiens) (UniProt P52333+P23458+O60674+P29597); assay: Inhibition of JAK-mediated GM-CSF-induced Stat5 phosphorylation in human U937 cells by Phospho-Flow cytometry at 20 uM; format: cell-based; conditions: U-937
[16] = Inhibition of JAK-mediated IL10-induced Stat3 phosphorylation in BALB/c mouse CD8+ T cells by Phospho-Flow cytometry; format: cell-based; conditions: T-cell
[17] = Inhibition of JAK-mediated IL7-induced Stat5 phosphorylation in BALB/c mouse CD11b-int macrophages by Phospho-Flow cytometry
[18] = Inhibition of JAK-mediated IL15-induced Stat5 phosphorylation in BALB/c mouse CD8+ T cells by Phospho-Flow cytometry; format: cell-based; conditions: T-cell
[19] = Inhibition of JAK-mediated IL4-induced Stat6 phosphorylation in BALB/c mouse CD8+ T cells by Phospho-Flow cytometry; format: cell-based; conditions: T-cell
[20] = Inhibition of JAK-mediated IL6-induced Stat1 phosphorylation in BALB/c mouse B cells by Phospho-Flow cytometry; format: cell-based
B [21] = assay: Inhibition of JAK-mediated IL4-induced Stat5 phosphorylation in BALB/c mouse B cells at 1 uM by Western blotting analysis; format: cell-based
[22] = Inhibition of JAK-mediated IL15-induced Stat5 phosphorylation in BALB/c mouse B cells by Phospho-Flow cytometry; format: cell-based
[23] = Inhibition of JAK-mediated IL4-induced Stat6 phosphorylation in BALB/c mouse B cells by Phospho-Flow cytometry; format: cell-based
[24] = Inhibition of JAK-mediated IL15-induced Stat5 phosphorylation in BALB/c mouse CD11b-int macrophages by Phospho-Flow cytometry
[25] = Inhibition of JAK-mediated IL7-induced Stat5 phosphorylation in BALB/c mouse CD8+ T cells by Phospho-Flow cytometry; format: cell-based; conditions: T-cell
[26] = Inhibition of JAK-mediated IL4-induced Stat5 phosphorylation in BALB/c mouse CD8+ T cells by Phospho-Flow cytometry; format: cell-based; conditions: T-cell
[27] = Inhibition of JAK-mediated IL10-induced Stat3 phosphorylation in BALB/c mouse CD11b-hi neutrophils by Phospho-Flow cytometry
[28] = Inhibition of JAK-mediated IL7-induced Stat5 phosphorylation in BALB/c mouse CD11b-hi neutrophils by Phospho-Flow cytometry
MAP kinase p38 = MAP kinase p38 (Homo sapiens, UniProt O15264+Q15759+Q16539+P53778); assay: Inhibition of anisomycin-induced p38 phosphorylation in human U937 cells by Phospho-Flow cytometry at 20 uM; format: cell-based; conditions: U-937
[29] = Inhibition of JAK-mediated IL10-induced Stat3 phosphorylation in BALB/c mouse CD11b-int macrophages by Phospho-Flow cytometry
[30] = Inhibition of JAK-mediated IL4-induced Stat5 phosphorylation in BALB/c mouse CD11b-int macrophages by Phospho-Flow cytometry
[31] = Inhibition of JAK-mediated interferon-gamma-induced Stat1 phosphorylation in BALB/c mouse CD11b-int macrophages by Phospho-Flow cytometry
[32] = Inhibition of JAK-mediated IL4-induced Stat6 phosphorylation in BALB/c mouse CD4+ T cells by Phospho-Flow cytometry; format: cell-based; conditions: T-cell
[33] = Inhibition of JAK-mediated IL6-induced Stat1 phosphorylation in BALB/c mouse CD11b-int macrophages by Phospho-Flow cytometry
[34] = Inhibition of JAK-mediated IL10-induced Stat3 phosphorylation in BALB/c mouse B cells by Phospho-Flow cytometry; format: cell-based
[35] = Inhibition of JAK-mediated interferon-gamma-induced Stat1 phosphorylation in BALB/c mouse CD4+ T cells by Phospho-Flow cytometry; format: cell-based; conditions: T-cell
[36] = Inhibition of JAK-mediated IL6-induced Stat3 phosphorylation in BALB/c mouse CD11b-int macrophages by Phospho-Flow cytometry
[37] = Inhibition of JAK-mediated IL6-induced Stat1 phosphorylation in BALB/c mouse CD11b-hi neutrophils by Phospho-Flow cytometry
[38] = Inhibition of JAK-mediated IL4-induced Stat5 phosphorylation in BALB/c mouse CD11b-hi neutrophils by Phospho-Flow cytometry
[39] = Inhibition of JAK-mediated IL15-induced Stat5 phosphorylation in BALB/c mouse CD4+ T cells by Phospho-Flow cytometry; format: cell-based; conditions: T-cell
[40] = Inhibition of JAK-mediated IL6-induced Stat3 phosphorylation in BALB/c mouse B cells by Phospho-Flow cytometry; format: cell-based
[41] = Inhibition of JAK-mediated IL4-induced Stat6 phosphorylation in BALB/c mouse CD11b-int macrophages by Phospho-Flow cytometry
[42] = target: T1, Janus Kinase (JAK) (Homo sapiens); assay: Inhibition of JAK-mediated interferon-gamma-induced Stat1 phosphorylation in human U937 cells by Phospho-Flow cytometry at 20 uM; format: cell-based; conditions: U-937
[43] = Inhibition of JAK-mediated interferon-gamma-induced Stat1 phosphorylation in BALB/c mouse B cells by Phospho-Flow cytometry; format: cell-based
[44] = Inhibition of JAK-mediated IL15-induced Stat5 phosphorylation in BALB/c mouse CD11b-hi neutrophils by Phospho-Flow cytometry
[45] = Inhibition of JAK-mediated IL6-induced Stat3 phosphorylation in BALB/c mouse CD4+ T cells by Phospho-Flow cytometry; format: cell-based; conditions: T-cell
B [46] = assay: Inhibition of JAK-mediated interferon-gamma-induced Stat1 phosphorylation in BALB/c mouse B cells at 3.5 uM by Phospho-Flow cytometry; format: cell-based
Mus musculus [47] = assay: In vivo inhibition of JAK-mediated IL6-induced Stat3 phosphorylation in blood cells in BALB/c mouse at 1 to 10 mg/kg, iv administered 30 mins before IL challenge for 15 mins; format: functional, organism-based
Mus musculus [48] = assay: In vivo inhibition of JAK-mediated IL4-induced Stat6 phosphorylation in spleen cells in BALB/c mouse at 1 to 10 mg/kg, iv administered 30 mins before IL challenge for 15 mins; format: functional, organism-based
T-cell = assay: Inhibition of JAK-mediated interferon-gamma-induced Stat1 phosphorylation in BALB/c mouse CD4+ T cells at 100 uM by Phospho-Flow cytometry; format: cell-based
Mus musculus [49] = assay: In vivo inhibition of JAK-mediated IL6-induced Stat3 phosphorylation in spleen cells in BALB/c mouse at 1 to 10 mg/kg, iv administered 30 mins before IL challenge for 15 mins; format: functional, organism-based
Mus musculus [50] = assay: In vivo inhibition of JAK-mediated IL4-induced Stat6 phosphorylation in blood cells in BALB/c mouse at 1 to 10 mg/kg, iv administered 30 mins before IL challenge for 15 mins; format: functional, organism-based

IC50 [1]: < 20 µM
IC50 [2]: 1 µM
IC50 [3]: < 20 µM
inhibition (Mus musculus [4]): Dose-dependent effect
IC50 [5]: < 20 µM
IC50 [6]: < 20 µM
IC50 [7]: < 20 µM
IC50 [8]: < 20 µM
IC50 [9]: < 20 µM
IC50 [11]: < 20 µM
IC50 [12]: < 20 µM
inhibition (Mus musculus [14]): Dose-dependent effect
inhibition [15]: Active
IC50 [16]: < 20 µM
IC50 [17]: < 20 µM
IC50 [18]: < 20 µM
IC50 [19]: < 20 µM
IC50 [20]: < 20 µM
IC50 [22]: < 20 µM
IC50 [23]: 16 µM
IC50 [24]: < 20 µM
IC50 [25]: < 20 µM
IC50 [26]: < 20 µM
IC50 [27]: < 20 µM
IC50 [28]: < 20 µM
inhibition (MAP kinase p38): 25%
IC50 [29]: < 20 µM
IC50 [30]: < 20 µM
IC50 [31]: < 20 µM
IC50 [32]: < 20 µM
IC50 [33]: < 20 µM
IC50 [34]: 1 µM
IC50 [35]: < 20 µM
IC50 [36]: < 20 µM
IC50 [37]: < 20 µM
IC50 [38]: < 20 µM
IC50 [39]: < 20 µM
IC50 [40]: < 20 µM
IC50 [41]: < 20 µM
inhibition [42]: 25%
IC50 [43]: < 20 µM
IC50 [44]: < 20 µM
IC50 [45]: < 20 µM
SMILES: C=C1C(=O)O[C@H]2C[C@@H]1[C@@H](OC(C)=O)C/C(C)=C/CC/C(C)=C\CC[C@@]2(C)O [CRASSIN]
inhibition (B [10]): Active
inhibition (B [13]): Active
inhibition (B [21]): Active

IC50 [1]: < 20 µM
IC50 [2]: < 20 µM
IC50 [3]: < 20 µM
IC50 [5]: < 20 µM
IC50 [6]: < 20 µM
IC50 [7]: < 20 µM
IC50 [8]: < 20 µM
IC50 [9]: < 20 µM
IC50 [11]: < 20 µM
IC50 [12]: < 20 µM
inhibition [15]: 25%
IC50 [16]: < 20 µM
IC50 [17]: < 20 µM
IC50 [18]: < 20 µM
IC50 [19]: < 20 µM
IC50 [20]: < 20 µM
IC50 [22]: < 20 µM
IC50 [24]: < 20 µM
IC50 [25]: < 20 µM
IC50 [26]: < 20 µM
IC50 [27]: < 20 µM
IC50 [28]: < 20 µM
inhibition (MAP kinase p38): 25%
IC50 [29]: < 20 µM
IC50 [30]: < 20 µM
IC50 [31]: < 20 µM
IC50 [32]: < 20 µM
IC50 [33]: < 20 µM
IC50 [34]: < 20 µM
IC50 [35]: < 20 µM
IC50 [36]: < 20 µM
IC50 [37]: < 20 µM
IC50 [38]: < 20 µM
IC50 [39]: < 20 µM
IC50 [40]: < 20 µM
IC50 [41]: < 20 µM
inhibition [42]: > 65%
IC50 [43]: < 20 µM
IC50 [44]: < 20 µM
IC50 [45]: < 20 µM
SMILES: COC1=C(N)C(=O)c2nc(-c3nc(C(=O)O)c(C)c(-c4ccc(OC)c(OC)c4O)c3N)ccc2C1=O [STREPTONIGRIN]
inhibition (B [46]): Active
inhibition (Mus musculus [47]): Active
inhibition (Mus musculus [48]): Active
inhibition (T-cell): < 50%
inhibition (Mus musculus [49]): Active
inhibition (Mus musculus [50]): Active
